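Grown in 96-well plates, cells were treated for 48 hours with each compound at five concentrations. Insufficient inhibition: endpoint recorded as highest concentration tested. Abbreviation: GI50, concentration required for 50% inhibition of growth. Definition used: TGI = concentration required for complete inhibition of growth.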
Experiments:
Assay in all cases: DTP human tumour cell line panel, 48 h
[1] = system: HOP-62 NSCLC
[2] = system: MDA-MB-231 breast
[3] = system: MOLT-4 leukemia
[4] = system: HOP-92 NSCLC
[5] = system: HS 578T breast
[6] = system: BT-549 breast
[7] = system: A498 renal
[8] = system: TK-10 renal
[9] = system: U251 CNS
[10] = system: MDA-MB-435
[11] = system: RXF 393 renal
[12] = system: K-562 leukemia
[13] = system: ACHN renal
[14] = system: PC-3 prostate
[15] = system: MALME-3M melanoma
[16] = system: NCI-H460 lung
[17] = system: NCI-H23 lung
[18] = system: HCT-116 colon
[19] = system: SK-MEL-28 melanoma
[20] = system: CAKI-1 renal
[21] = system: OVCAR-5 ovarian
[22] = system: A549 NSCLC
[23] = system: UO-31 renal
[24] = system: OVCAR-8 ovarian
[25] = system: OVCAR-4 ovarian
[26] = system: SF-539 CNS
[27] = system: COLO 205 colon
[28] = system: UACC-257 melanoma
[29] = system: SR leukemia
[30] = system: 786-0 renal
[31] = system: SK-OV-3 ovarian
[32] = system: M14 melanoma
[33] = system: KM12 colon
[34] = system: SNB-75 CNS
[35] = system: HL-60(TB) leukemia
[36] = system: SF-268 CNS
[37] = system: SNB-19 CNS
[38] = system: NCI-H522 lung
[39] = system: SK-MEL-2 melanoma
[40] = system: OVCAR-3 ovarian
[41] = system: DU-145 prostate
[42] = system: MDA-MB-468 breast
[43] = system: HCC-2998 colon
[44] = system: HCT-15 colon
[45] = system: SF-295 CNS
[46] = system: SW-620 colon
[47] = system: MCF7 breast
[48] = system: CCRF-CEM leukemia
[49] = system: SK-MEL-5 melanoma
[50] = system: HT29 colon
[51] = system: EKVX NSCLC
[52] = system: SN12C renal
[53] = system: T-47D breast
[54] = system: UACC-62 melanoma
[55] = system: IGROV1 ovarian
[56] = system: LOX IMVI melanoma
[57] = system: RPMI-8226 leukemia
[58] = system: NCI/ADR-RES ovarian
[59] = system: NCI-H226 lung

For `COc1cc(C2CC(c3ccc(C(F)(F)F)cc3)=Nc3c(N)nc(N)nc3N2)ccc1Oc1nc(Nc2ccc(F)cc2)nc(N(C)C)n1` (stereo unspecified), the GI50 [1] was 17.8 µM, the TGI [1] was 74.6 µM and the GI50 [2] was 2.29 µM. For the same compound, the TGI [2] was 8.39 µM, the GI50 [3] was 1.71 µM and the TGI [3] was > 100 µM. It also gave a GI50 [4] of 2.1 µM, a TGI [4] of 9.46 µM and a GI50 [5] of 4.77 µM. For the same compound, the TGI [5] was 96.2 µM, the GI50 [6] was 4.41 µM and the TGI [6] was 21 µM. The GI50 [7] was 17 µM, the TGI [7] was 89.9 µM and the GI50 [8] was 18 µM. The TGI [8] was 71 µM, the GI50 [9] was 4.63 µM and the TGI [9] was 21.1 µM. For the same compound, the GI50 [10] was 4.59 µM, the TGI [10] was 23.5 µM and the GI50 [11] was 1.22 µM. The TGI [11] was 5.54 µM, the GI50 [12] was 1.85 µM and the TGI [12] was > 100 µM. For the same compound, the GI50 [13] was 6.05 µM, the TGI [13] was > 100 µM and the GI50 [14] was 3.2 µM. The TGI [14] was > 100 µM, the GI50 [15] was 2.84 µM and the TGI [15] was 14.2 µM. It also gave a GI50 [16] of 2.61 µM, a TGI [16] of 7.19 µM and a GI50 [17] of 16.9 µM. The TGI [17] was 74.9 µM, the GI50 [18] was 1.76 µM and the TGI [18] was 3.65 µM. The GI50 [19] was 28.1 µM, the TGI [19] was > 100 µM and the GI50 [20] was 1.65 µM. For the same compound, the TGI [20] was > 100 µM, the GI50 [21] was 35.2 µM and the TGI [21] was > 100 µM. The GI50 [22] was 4.78 µM, the TGI [22] was > 100 µM and the GI50 [23] was 3.66 µM. The TGI [23] was > 100 µM, the GI50 [24] was 5.48 µM and the TGI [24] was > 100 µM. The GI50 [25] was 3.92 µM, the TGI [25] was 33.1 µM and the GI50 [26] was 6.1 µM. The TGI [26] was 22.1 µM, the GI50 [27] was 3.09 µM and the TGI [27] was 14.7 µM. It also gave a GI50 [28] of 14.1 µM, a TGI [28] of 76.5 µM and a GI50 [29] of 1.89 µM. It also gave a TGI [29] of 5.9 µM, a GI50 [30] of 4 µM and a TGI [30] of 16.6 µM. The GI50 [31] was 63.5 µM, the TGI [31] was > 100 µM and the GI50 [32] was 4.41 µM. It also gave a TGI [32] of 50.7 µM, a GI50 [33] of 3.05 µM and a TGI [33] of 11.7 µM. The GI50 [34] was 2.17 µM, the TGI [34] was > 100 µM and the GI50 [35] was 2.35 µM. The TGI [35] was 47.3 µM, the GI50 [36] was 6.14 µM and the TGI [36] was > 100 µM. The GI50 [37] was 9.14 µM, the TGI [37] was > 100 µM and the GI50 [38] was 4.75 µM. It also gave a TGI [38] of 23.3 µM, a GI50 [39] of 2.94 µM and a TGI [39] of 11.7 µM. For the same compound, the GI50 [40] was 5.46 µM, the TGI [40] was 21.9 µM and the GI50 [41] was 4.9 µM. The TGI [41] was > 100 µM, the GI50 [42] was 2.4 µM and the TGI [42] was 7.79 µM. The GI50 [43] was 2.26 µM, the TGI [43] was 5.69 µM and the GI50 [44] was 3.4 µM. For the same compound, the TGI [44] was 14.6 µM, the GI50 [45] was 7.12 µM and the TGI [45] was 62.1 µM. The GI50 [46] was 5.59 µM, the TGI [46] was 75.2 µM and the GI50 [47] was 2.66 µM. For the same compound, the TGI [47] was 10.7 µM, the GI50 [48] was 3.32 µM and the TGI [48] was > 100 µM. The GI50 [49] was 3.32 µM, the TGI [49] was 12.8 µM and the GI50 [50] was 2.23 µM. For the same compound, the TGI [50] was 5.86 µM, the GI50 [51] was 4.23 µM and the TGI [51] was > 100 µM. It also gave a GI50 [52] of 6.09 µM, a TGI [52] of 46.6 µM and a GI50 [53] of 19 µM. The TGI [53] was > 100 µM, the GI50 [54] was 13.1 µM and the TGI [54] was 31.2 µM. The GI50 [55] was 5 µM and the TGI [55] was > 100 µM.
For `COc1ccc(NC(=O)Cn2c(/C=C/c3cccc(OC)c3)nc3ccccc3c2=O)cc1`, the GI50 [1] was 3.01 µM, the TGI [1] was 28.3 µM and the GI50 [2] was 1.4 µM. The TGI [2] was 4.42 µM, the GI50 [56] was 2.03 µM and the TGI [56] was > 100 µM. For the same compound, the GI50 [3] was > 100 µM, the TGI [3] was > 100 µM and the GI50 [4] was 2.95 µM. For the same compound, the TGI [4] was > 44.7 µM, the GI50 [5] was 2.46 µM and the TGI [5] was > 100 µM. The GI50 [6] was 9.84 µM, the TGI [6] was > 59.9 µM and the GI50 [7] was 1.96 µM. The TGI [7] was 4.68 µM, the GI50 [8] was 2.03 µM and the TGI [8] was 4.5 µM. For the same compound, the GI50 [9] was 0.973 µM, the TGI [9] was 4.2 µM and the GI50 [10] was > 100 µM. For the same compound, the TGI [10] was > 100 µM, the GI50 [11] was 1.93 µM and the TGI [11] was 5.63 µM. For the same compound, the GI50 [12] was > 100 µM, the TGI [12] was > 100 µM and the GI50 [13] was 1.24 µM. The TGI [13] was 3.17 µM, the GI50 [14] was > 54 µM and the TGI [14] was > 100 µM. The GI50 [15] was 3.79 µM, the TGI [15] was > 85.8 µM and the GI50 [16] was 2.51 µM. For the same compound, the TGI [16] was > 100 µM, the GI50 [17] was 3.69 µM and the TGI [17] was > 44.3 µM. The GI50 [18] was 1.21 µM, the TGI [18] was > 59 µM and the GI50 [19] was > 75 µM. The TGI [19] was > 100 µM, the GI50 [20] was 2.52 µM and the TGI [20] was > 31.7 µM. For the same compound, the GI50 [21] was > 24.9 µM, the TGI [21] was > 100 µM and the GI50 [57] was > 100 µM. For the same compound, the TGI [57] was > 100 µM, the GI50 [22] was 2.3 µM and the TGI [22] was > 100 µM. The GI50 [23] was 1.73 µM, the TGI [23] was 3.77 µM and the GI50 [24] was 4.55 µM. For the same compound, the TGI [24] was > 100 µM, the GI50 [26] was 1.65 µM and the TGI [26] was 4.15 µM. The GI50 [27] was > 100 µM, the TGI [27] was > 100 µM and the GI50 [28] was > 100 µM. For the same compound, the TGI [28] was > 100 µM, the GI50 [29] was 1.75 µM and the TGI [29] was > 100 µM. For the same compound, the GI50 [30] was 1.54 µM, the TGI [30] was 3.38 µM and the GI50 [31] was 5.67 µM. For the same compound, the TGI [31] was > 46.7 µM, the GI50 [32] was > 29.3 µM and the TGI [32] was > 100 µM. For the same compound, the GI50 [33] was > 100 µM, the TGI [33] was > 100 µM and the GI50 [34] was 1.63 µM. The TGI [34] was 4.49 µM, the GI50 [35] was > 100 µM and the TGI [35] was > 100 µM. The GI50 [58] was 4.14 µM, the TGI [58] was 86.9 µM and the GI50 [36] was 19.4 µM. For the same compound, the TGI [36] was > 100 µM, the GI50 [37] was 8.37 µM and the TGI [37] was > 59.3 µM. The GI50 [38] was 5.8 µM, the TGI [38] was > 47.5 µM and the GI50 [39] was 27.2 µM. For the same compound, the TGI [39] was 79.6 µM, the GI50 [40] was 4.03 µM and the TGI [40] was > 45.9 µM. The GI50 [41] was > 81.2 µM, the TGI [41] was > 100 µM and the GI50 [42] was 3.4 µM. The TGI [42] was > 91.6 µM, the GI50 [43] was > 100 µM and the TGI [43] was > 100 µM. For the same compound, the GI50 [44] was > 100 µM, the TGI [44] was > 100 µM and the GI50 [45] was 2.56 µM. For the same compound, the TGI [45] was > 41.1 µM, the GI50 [46] was > 100 µM and the TGI [46] was > 100 µM. The GI50 [47] was 3.56 µM, the TGI [47] was > 100 µM and the GI50 [48] was > 100 µM. The TGI [48] was > 100 µM, the GI50 [49] was > 100 µM and the TGI [49] was > 100 µM. For the same compound, the GI50 [50] was > 100 µM, the TGI [50] was > 100 µM and the GI50 [51] was > 63.1 µM. The TGI [51] was > 100 µM, the GI50 [52] was 1.85 µM and the TGI [52] was > 39.1 µM. The GI50 [53] was 2.41 µM, the TGI [53] was 14.6 µM and the GI50 [54] was > 42.1 µM. The TGI [54] was > 89.6 µM, the GI50 [59] was 1.98 µM and the TGI [59] was 6.51 µM. For the same compound, the GI50 [55] was > 31 µM and the TGI [55] was > 87.8 µM.
